The test system of one experiment is FgTGRsec (GR activity). Set-up: method as in PMID 29526505. The settings on record: cited from earlier work.
Experiment [1] addresses T1, FgTGRsec (TrxR activity) (Fasciola gigantica, UniProt A0A0K1NYF8). Details: method as in PMID 29526505. The settings on record: cited from earlier work.
For experiment [2], the system named is Taenia crassiceps cysticerci. Set-up: method as in PMID 20431894. The settings on record: cited from earlier work.
In experiment [3] the target is T1, FgTGRsec (TrxR activity). Description: DTNB-based TrxR activity inhibition assay of FgTGRsec. The settings on record: DTNB reduction, 20 min incubation, triplicate, read-out: IC50 of rFgTGRsec. In kind it is biochemical. The procedure:
The TrxR activity of FgTGR and FgTGRsec was determined by using the 5, 5′-diothiobis (2-nitrobenzoic acid, DTNB, 4 mg/mL) (Sigma, St. Louis, MO, USA) reduction assay at room temperature. The reaction mixture was composed of 180 μL working buffer (0.1 mM potassium phosphate, pH 7.0, 10 mMEDTA, 100 μM β-nicotinamide adenine dinucleotide phosphate (NADPH) (Sigma)), 4 μL assay buffer (0.1 mM potassium phosphate, pH 7.0, 10 mM EDTA), 6 μL DTNB, and 10 μL rFgTGR or rFgTGRsec (600 μg/mL). The reaction was initiated by the adding DTNB at concentrations ranging from 100 μmol/L to 1000 μmol/L. An increase in absorbance at 412 nm was observed within the first 2 min. One unit of thioredoxin reductase (TrxR) activity was defined as the amount of enzyme that catalyzes the production of 1 μmol of 2-nitro-5-thiobenoic acid (TNB) per minute at room temperature. The reaction mixture without FgTGR or FgTGRsec was used as a negative control, and the processes of the negative experiments were the same as the above description.
To evaluate the effect of furoxan derivatives on FgTGRsec, the activity of TrxR was measured. The furoxan derivatives were soluble in dimethyl sulfoxide (DMSO), and seven concentrations of each derivative were prepared based on their distinct structures. For the DTNB-based TrxR activity inhibition assay, reaction mixtures were prepared as described in the TrxR activity assay protocol. The components were incubated for 20 min, after which the reaction was initiated by adding DTNB. The increase in absorbance at 412 nm was measured to evaluate the inhibitory effect of each furoxan derivative. The half-maximal inhibitory concentration (IC50) values of the compounds were calculated by GraphPad Prism v6.0c software. The reaction without FgTGRsec and furoxan derivatives served as the blank control, while the reaction with furoxan was the positive control. All assays were performed in triplicate.

In a further experiment the test system is SjTGRsec (TrxR activity). Set-up: method as in PMID 33902686. The settings on record: S. japonicum, result in words; cited from earlier work.

The structures appear in SMILES notation. Where two headings read alike, the source gives them in different places.

T1 sequence (A0A0K1NYF8 entry or part of it): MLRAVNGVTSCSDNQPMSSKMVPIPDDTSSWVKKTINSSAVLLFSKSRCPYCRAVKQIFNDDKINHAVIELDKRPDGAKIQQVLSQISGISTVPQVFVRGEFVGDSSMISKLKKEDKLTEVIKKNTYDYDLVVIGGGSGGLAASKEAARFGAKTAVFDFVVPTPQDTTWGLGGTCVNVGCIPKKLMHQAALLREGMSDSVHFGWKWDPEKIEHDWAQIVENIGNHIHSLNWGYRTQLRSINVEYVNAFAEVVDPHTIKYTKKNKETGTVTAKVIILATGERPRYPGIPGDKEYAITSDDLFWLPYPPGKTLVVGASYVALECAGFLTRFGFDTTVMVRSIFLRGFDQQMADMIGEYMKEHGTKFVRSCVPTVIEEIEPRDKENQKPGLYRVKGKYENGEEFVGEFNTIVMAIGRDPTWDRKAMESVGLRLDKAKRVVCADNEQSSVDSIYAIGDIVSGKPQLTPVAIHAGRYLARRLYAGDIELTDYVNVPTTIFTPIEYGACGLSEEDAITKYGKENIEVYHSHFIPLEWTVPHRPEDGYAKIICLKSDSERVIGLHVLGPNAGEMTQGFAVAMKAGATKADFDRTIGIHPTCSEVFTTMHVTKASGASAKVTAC

The IC50 is the concentration that inhibits the measured activity by half. Regarding `CC(=O)OC[C@H]1O[C@@H]([S-])[C@H](OC(C)=O)[C@@H](OC(C)=O)[C@@H]1OC(C)=O.CCP(CC)CC.[Au+]` [AF, auranofin], the IC50 was 8.3 µM in the experiment on FgTGRsec (GR activity), 0.87 µM on FgTGRsec (TrxR activity) [1] and 3.8 µM in experiment [2] (Taenia crassiceps cysticerci cultured with AF for 12 h). The survival of cysticerci entry in experiment [2] (after culturing with AF for 12 h) is “all dead”.

Take `[O-][n+]1onc(-c2ccc(C(F)(F)F)cc2)c1CN1CCN(c2ccccc2F)CC1` [CH-33]: at FgTGRsec (TrxR activity) [3], the IC50 was 18.5 ± 2.57 µM.

Turning to `[O-][n+]1onc(-c2cccnc2)c1CO` [LGM-1], the IC50 at FgTGRsec (TrxR activity) [3] stood at 6.93 ± 1.74 µM.

With `[O-][n+]1onc(-c2ccncc2)c1CO` [LGM-2], at FgTGRsec (TrxR activity) [3], the concentration for half-maximal inhibition (IC50) came to 15.2 ± 0.8 µM.

In the case of `[O-][n+]1onc(-c2ccc(C(F)(F)F)nc2)c1CO` [LGM-35], the “inhibition of TrxR activity” value in the experiment on SjTGRsec (TrxR activity) was “most significant inhibition”. Moreover, on FgTGRsec (TrxR activity) [3], the IC50 was 4.5 ± 0.35 µM.

In the case of `[O-][n+]1onc(-c2cccc(Cl)c2)c1CO` [ZWJ-19], the IC50 at FgTGRsec (TrxR activity) [3] came out at 3.82 ± 0.33 µM.
